Reference: US20250270289A1, “SEQUENCE-DEFINED POLYMERS WITH ONE OR MORE AZIDES, METHODS OF MAKING, AND METHODS OF USE THEREOF” (Yale University, priority 2021, published 2025)
Where two headings read alike, the source gives them in different places. Starred links: 1 amine or outer side, 2 acyl side, 3 side chain; linkers in the order of their positions; H or OH if unused. Non-standard residues stand in square brackets, D forms with d. Residues, ends and D or L forms follow the SMILES beside them. X1 = O=C([C@H](Cc1ccc(NP(=O)(O)O)cc1)N[*:1])[*:2]

Assays:
pAcFRS.1.t1 synthetase = molecular target: T1, pAcFRS.1.t1 synthetase (Methanocaldococcus jannaschii, UniProt Q57834, A167D/D158G/D286R/I159C/L162R/R257G/Y32L); assay: In vitro tRNA charging assay; format: biochemical; conditions: purified pAcFRS.1.t1, 1 mM amino acid
T1 construct: His; made in house
Protocol: The pAcFRS.1.t1 synthetase was His-purified, and stored in 50 mM KCl, 50 mM HEPES-KOH at pH 7.5, 10% glycerol. The cognate tRNA was in vitro transcribed (IVT) from dsDNA template containing a T7 promoter, hammerhead ribozyme and tRNA, as described previously(Fechter et al., 1998). The IVT buffer consists of 40 mM Tris-HCl at pH8.0, 0.01% Triton X, 30 mM MgCl2, 2 mM Spermidine, 1 mM DTT. For a 100 μL reaction, 4 mM riboNTPs (N0466S, NEB), 100U T7 (M0251S, NEB) and 1-2 μM dsDNA template were added. The reaction was incubated at 37° C. for 3 h. Afterwards, the sample was diluted 5× with reaction buffer, and heated to 65C for 1 h to promote hammerhead cleavage. After a phenol:chloroform extraction, the cleaved tRNA was separated from other fragments using a TBE-Urea gel. Finally, the tRNA was refolded by slowly cooling the sample from 95° C. to r.t. At 65° C., MgCl2 was added to a final concentration of 10 mM.
aaRS specificity was measured using in vitro charging. The reaction composition was 150 mM HEPES-KOH at pH 7.5, 10 mM MgCl2, 2.5 mM DTT, 0.2 mg/mL BSA, 2 mM ATP, 1 mM amino acid, 500 nM aaRS and 750 nM tRNA. The reactions were incubated at 37° C. for 30 min. Afterwards, they were quenched using loading buffer (0.1 M sodium acetate pH 5.0, 8 M urea, 0.05% bromophenol blue, 0.05% xylene cyanol FF). The samples were then analyzed on an acid-urea PAGE gel (8 M urea, 0.1 M sodium acetate at pH 5.2) (Varshney et al., 1991), that was prerun in running buffer (0.1 M NaOAc at pH 5.2) for 20 min at 13 W. After sample loading, the gel was run at a constant 13 W for 20 h. The tRNA was visualized with ethidium bromide staining.

[1] = Reduction of pAzF to pAF under purification pH and temperatures (HRMS); format: physicochemical; conditions: pH 6.6, 7.2, 7.9; 4, 20, 34 or 80° C.
Description: High-resolution mass spectrometry (HRMS) data was collected using an Agilent iFunnel 6550 Quadrupole Time-Of-Flight (QTOF) MS with an electrospray ionization (ESI) source, coupled to an Agilent Infinity 1290 ultra-high-performance liquid chromatography (UHPLC) system with an Agilent Eclipse Plus C18 1.8 μm, 4.6×50 mm column. Solvents used were (solvent A) water 0.1% formic acid and (solvent B) CH3CN 0.1% formic acid. Mass spectra were gathered using Dual Agilent Jet Stream (AJS) ESI in positive mode. The mass range was set from 110 to 1700 m/z with a scan speed of 3 scan/second. The capillary and nozzle voltages were set to 5500 and 2000 V, respectively. […] MS data were acquired with MassHunter Workstation Data Acquistion (Version B.06.01, Agilent Technologies) and analyzed using MassHunter Qualitative Analysis (Version B.07.00, Agilent Technologies). Protein quantification was performed using peptide standards with the same sequence as the digested peptides, or based on calibration curves produced using dilutions series of peptide(1TAG)-GFP.
Experiments were designed to assess if reduction of pAzF residues occurs during protein purification or MS analysis. Experiments evaluated if pAzF is reduced over a range of pH (6.6, 7.2, 7.9) and temperatures (4, 20, 34, or 80° C.) used during sample purification, and found minimal (<1%) reduction to pAF under all conditions. […]

Src SH2 domain = Src SH2 domain (Homo sapiens, UniProt P12931); assay: Fluorescence polarization assay, direct binding and competition with FITC-pTyrEEI
Protocol: They were then induced with 1 mM IPTG and grown overnight. Cells were pelleted prior to freezing at −80° C. Pellets were resuspended in lysis buffer (50 mM Tris, pH 8.0, 500 mM NaCl, 0.5 mM EDTA, 0.5 mM EGTA, 10% glycerol) and then sonicated. Clarified lysate was incubated with Glutathione Sepharose 4B resin, washed (50 mM Tris, pH 8.0, 50 mM NaCl, 10% glycerol) and eluted from resin in elution buffer (20 mM reduced glutathione, 50 mM Tris, pH 8.0, 50 mM NaCl, 10% glycerol, pH 8.0). […] Protein was stored at −80° C. […] Kd was established using one-site binding model in GraphPad Prism version 7 for Mac (GraphPad Software, La Jolla, CA, USA). Unlabeled peptides were diluted to 100 μM in assay buffer. […] A full-dissociation control was established with 10 nM peptide in assay buffer. […] EC50 for percent inhibition was estimated by plotting log10[agonist] vs. response and fitting a four-parameter variable slope fit in GraphPad Prism.

T1 sequence (Q57834 whole entry Y32L/D158G/I159C/L162R/A167D/R257G/D286R): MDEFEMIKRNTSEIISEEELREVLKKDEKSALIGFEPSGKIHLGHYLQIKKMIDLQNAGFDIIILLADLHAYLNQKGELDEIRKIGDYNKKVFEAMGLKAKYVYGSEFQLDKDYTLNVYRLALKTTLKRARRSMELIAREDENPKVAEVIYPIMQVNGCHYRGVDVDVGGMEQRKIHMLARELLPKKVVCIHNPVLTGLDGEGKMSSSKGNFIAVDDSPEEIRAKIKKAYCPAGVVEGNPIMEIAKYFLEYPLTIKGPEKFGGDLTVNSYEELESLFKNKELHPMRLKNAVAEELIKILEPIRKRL

Nc1ccc(C[C@H](N)C(=O)O)cc1 [pAF, para-amino-phenylalanine]
charging onto the cognate tRNA (pAcFRS.1.t1 synthetase): no charging

[N-]=[N+]=Nc1ccc(C[C@H](N)C(=O)O)cc1 [pAzF, para-azido-phenylalanine]
charging onto the cognate tRNA (pAcFRS.1.t1 synthetase): charged | reduction to pAF [1]: < 1%

CC[C@H](C)[C@H](NC(=O)[C@@H]1CCCN1C(=O)[C@@H](NC(=O)[C@H](CCC(=O)O)NC(=O)[C@H](CCC(=O)O)NC(=O)[C@H](Cc1ccc(NP(=O)(O)O)cc1)NC(=O)[C@H](CCC(N)=O)NC(=O)[C@@H]1CCCN1C(=O)[C@@H](N)CCC(=O)O)[C@@H](C)CC)C(=O)N[C@@H](Cc1ccc(O)cc1)C(=O)N[C@@H](CC(C)C)C(=O)O [pnY peptide] (H-EPQ[X1]EEIPIYL-OH; N-terminus and C-terminus assumed)
EC50 (Src SH2 domain): 12.8 µM | Decrease in binding affinity with SH2 (Src SH2 domain; pnY peptide EC50 compared with […], Src SH2): 17 fold

N[C@@H](Cc1ccc(O)cc1)C(=O)O [tyrosine]
charging onto the cognate tRNA (pAcFRS.1.t1 synthetase): no charging

EPQYEEIPIYL [Tyr peptide, reference compound]
EC50 (Src SH2 domain; competition with FITC-labeled pTyr peptide): No increase in unbound FITC-pTyr peptide
